Data as given in paper PMC11508334, “In Vitro Evaluation of New 5-Nitroindazolin-3-one Derivatives as Promising Agents against Trypanosoma cruzi” (International Journal of Molecular Sciences, 2024).

Assays:
[1] = Cyclic voltammetry, reduction of nitro group; type: physicochemical; conditions: for −EpaIII: anodic peak potential of couple IIIc/IIIa; for −EpaIII / −EpcIII / −E1/2: given with inverted sign, vs. Ag/AgCl electrode in DMSO; for −EpcIII: cathodic peak potential of couple IIIc/IIIa; for Ipa/Ipc: current ratio RNO2/RNO2•−, couple IIIc/IIIa, DMSO; for −E1/2: half-wave potential of couple IIIc/IIIa
Method: Cyclic Voltammetry (CV) was carried out using a Metrohm Autolab instrument model PGSTAT204, using dimethyl sulfoxide (DMSO) as the solvent (1 mM solutions), tetrabutylammonium perchlorate (0.1 M TBAP) as the supporting electrolyte, a hanging drop mercury electrode (HDME) as the working electrode, Ag/AgCl (3M KCl) as the reference electrode, and a graphite rod as the counter electrode. All measurements were performed after bubbling with nitrogen (N2) for 10 min.
Using Nicholson’s procedure, the Ipa/Ipc values (RNO2/RNO2^•−) were measured from each cyclic voltammogram with a scan rate between 0.1 and 2.5 V/s.

[2] = tested on: T. cruzi epimastigote stage (Dm28c strain); experiment: Epimastigotes viability study (MTT); type: cell-based, Trypanosoma cruzi; conditions: for SI Epimastigote: Selectivity Index IC50 macrophages RAW 264.7/IC50 epimastigotes Dm28c; for IC50: Trypanosoma cruzi, T. cruzi Dm28c epimastigotes, 24 h, MTT
Method: The trypanocidal activity was evaluated against the T. cruzi epimastigote stage (Dm28c strain). It was measured through the MTT assay using 0.22 mg/mL phenazine methosulfate (as an electron carrier). T. cruzi epimastigote from the author's collection (Programa de Farmacología Molecular y Clínica, Facultad de Medicina, Universidad de Chile, Santiago, Chile) were grown at 28 °C in liver infusion tryptase (LIT) medium, as reported earlier, but replacing blood with 4 μM hemin. […] fetal bovine serum (FBS) was added to a final concentration of 10% v/v. In this colorimetric assay for testing the trypanocidal activity, the compounds were dissolved in DMSO. They were added to 3 × 10^6 parasites/mL at 100 μM final concentrations in RPMI 1640 culture medium without phenol red for 24 h at 28 °C. The final concentration of DMSO was less than 0.1% v/v. […] The MTT assay, which was described previously, determined the viability of the epimastigotes.

Dm28c trypomastigotes = experiment: Trypomastigote viability study (MTT); type: cell-based, Trypanosoma cruzi; conditions: for SI Trypomastigote: Selectivity Index IC50 macrophages RAW 264.7/IC50 trypomastigotes Dm28c; for IC50: Trypanosoma cruzi, T. cruzi Dm28c trypomastigotes, 24 h, MTT
Method: Vero cells (ATCC CCL-81) were infected with Dm28c trypomastigotes at a 1:3 (cell: parasite) ratio. T. cruzi trypomastigotes were initially obtained from primary cultures of peritoneal macrophage from chagasic mice. […] Vero cell cultures were then infected with trypomastigotes and incubated at 37 °C in humidified air and 5% CO2 for 5–7 days. After that time, the culture medium was collected and centrifuged at 500× g for 5 min. The trypomastigote-containing pellet was re-suspended in RPMI 1640 supplemented with inactivated FBS and penicillin–streptomycin at a final 1 × 10^7 parasites/mL density. Trypomastigote viability assays were performed using the MTT reduction method as described previously. Then, 1 × 10^7 parasites/mL was incubated in RPMI 1640 with inactivated FBS at 37 °C for 24 h with or without the studied compounds.

RAW 264.7 cells = experiment: Cytotoxicity MTT assay on RAW 264.7 cells; type: cell-based; conditions: Mus musculus, RAW264.7, in vitro cytotoxicity, murine RAW 264.7 macrophages
Method: The compounds under study, dissolved in dimethylsulfoxide (DMSO), were added to the culture media at 10–200 μM. RAW 264.7 cells were cultured in 96-well plates (5 × 10^4 cells per well), and 100 μL of 0.5 mg/mL MTT was added to each well. The DMSO final concentration was less than 0.1% v/v. After incubation for 4 h at 37 °C, the generated water-insoluble formazan dye was dissolved by adding 100 μL of 10% w/v sodium dodecyl sulfate (SDS) in 0.01 M HCl. The plates were further incubated overnight at 37 °C; […] 0.5% of Triton X-100 was added as a positive control. The plates were further incubated overnight at 37 °C, and the optical density of the wells was determined using a microplate reader (Asys Expert Plus©, Asys Hitachi, Vienna, Austria) at 570 nm. Under these conditions, the optical density is directly proportional to the viable cell number in each well. All experiments were performed at least thrice and data were reported as means and their standard deviations from triplicate cultures. Results are reported as IC50 regarding the control (uninfected cells in culture medium)

| Structure (SMILES) | −EpaIII [1] | −EpcIII [1] | Ipa/Ipc [1] | −E1/2 [1] | IC50 [2] | melting point | SI Epimastigote [2] | SI Trypomastigote (Dm28c trypomastigotes) | IC50 (Dm28c trypomastigotes) | IC50 (RAW 264.7 cells) |
| --- | --- | --- | --- | --- | --- | --- | --- | --- | --- | --- |
| Cn1c2ccc([N+](=O)[O-])cc2c(=O)n1Cc1ccccc1F [Compound 6] | 0.94 V | 1.22 V | 0.99 | 1.08 V | 32.9 ± 0.7 µM | – | 2.6 | 1.5 | 56.4 ± 1.5 µM | 83.9 ± 0.9 µM |
| Cn1c2ccc([N+](=O)[O-])cc2c(=O)n1Cc1cccc(F)c1 [Compound 7, 2-(3-Fluorobenzyl)-1-methyl-5-nitro-1,2-dihydro-3H-indazol-3-one] | 0.98 V | 1.20 V | 1.00 | 1.09 V | 29.5 ± 1.5 µM | 125 to 127 °C | 3.2 | 2.3 | 41.2 ± 0.8 µM | 95.1 ± 1.1 µM |
| Cn1c2ccc([N+](=O)[O-])cc2c(=O)n1Cc1ccc(F)cc1 [Compound 8, 2-(4-Fluorobenzyl)-1-methyl-5-nitro-1,2-dihydro-3H-indazol-3-one] | 0.99 V | 1.14 V | 1.00 | 1.07 V | 36.4 ± 0.8 µM | 139 to 141 °C | 3.2 | 2.0 | 57.8 ± 1.3 µM | 116 ± 1.7 µM |
| Cn1c2ccc([N+](=O)[O-])cc2c(=O)n1Cc1ccccc1Cl [Compound 9, 2-(2-Chlorobenzyl)-1-methyl-5-nitro-1,2-dihydro-3H-indazol-3-one] | 1.02 V | 1.10 V | 0.96 | 1.06 V | 43.7 ± 2 µM | 179 to 181 °C | 4.0 | 2.8 | 61.6 ± 1.4 µM | 176 ± 2.3 µM |
| Cn1c2ccc([N+](=O)[O-])cc2c(=O)n1Cc1cccc(Cl)c1 [Compound 10, 2-(3-Chlorobenzyl)-1-methyl-5-nitro-1,2-dihydro-3H-indazol-3-one] | 0.96 V | 1.17 V | 0.93 | 1.07 V | 40.3 ± 2 µM | 154 to 156 °C | >5.0 | >3.7 | 54.2 ± 1.1 µM | > 200 µM |
| Cn1c2ccc([N+](=O)[O-])cc2c(=O)n1Cc1ccc(Br)cc1 [Compound 14, 2-(4-Bromobenzyl)-1-methyl-5-nitro-1,2-dihydro-3H-indazol-3-one] | 0.99 V | 1.20 V | 0.94 | 1.10 V | 83.9 ± 1.9 µM | 144 to 146 °C | 2.1 | 3.5 | 48.6 ± 1.2 µM | 172 ± 2.3 µM |
| COc1ccc(Cn2c(=O)c3cc([N+](=O)[O-])ccc3n2C)cc1 [Compound 16, 2-(4-Methoxybenzyl)-1-methyl-5-nitro-1,2-dihydro-3H-indazol-3-one] | 1.03 V | 1.15 V | 0.91 | 1.09 V | > 100 µM | 139 to 141 °C | – | – | > 100 µM | > 200 µM |
| COc1nn(C)c2ccc([N+](=O)[O-])cc12 [Compound 23] | 1.25 V | 1.37 V | 0.78 | 1.31 V | > 100 µM | – | – | – | > 100 µM | > 200 µM |

Continued, in another order:

| −EpaIII [1] | −EpcIII [1] | Ipa/Ipc [1] | −E1/2 [1] | IC50 [2] | melting point | Structure (SMILES) | SI Epimastigote [2] | SI Trypomastigote (Dm28c trypomastigotes) | IC50 (Dm28c trypomastigotes) | IC50 (RAW 264.7 cells) |
| --- | --- | --- | --- | --- | --- | --- | --- | --- | --- | --- |
| 0.93 V | 1.08 V | 0.98 | 1.00 V | – | – | O=C(Cn1ccnc1[N+](=O)[O-])NCc1ccccc1 [BNZ, benznidazole, reference compound] | – | – | – | – |
| 1.27 V | 1.37 V | 0.63 | 1.32 V | 46.9 ± 3.4 µM | – | O=c1c2cc([N+](=O)[O-])ccc2[nH]n1-c1ccccc1 [Compound 4] | 2.1 | 1.5 | 63.4 ± 1.4 µM | 97.5 ± 1.2 µM |
| 0.96 V | 1.17 V | 1.00 | 1.07 V | 30.3 ± 1.1 µM | 182 to 184 °C | Cn1c2ccc([N+](=O)[O-])cc2c(=O)n1Cc1ccccc1Br [Compound 12, 2-(2-Bromobenzyl)-1-methyl-5-nitro-1,2-dihydro-3H-indazol-3-one] | 2.4 | 1.4 | 52.5 ± 1.3 µM | 72.4 ± 1.6 µM |
| 0.82 V | 1.37 V | 0.96 | 1.10 V | 35.4 ± 1.1 µM | 211 to 213 °C | Cn1c2ccc([N+](=O)[O-])cc2c(=O)n1Cc1ccccc1C(F)(F)F [Compound 17, 1-Methyl-5-nitro-2-[2-(trifluoromethyl)benzyl]-1,2-dihydro-3H-indazol-3-one] | 4.7 | 1.9 | 89.3 ± 1 µM | 166 ± 2.3 µM |
| 1.02 V | 1.12 V | 0.91 | 1.07 V | 68.7 ± 1.7 µM | 155 to 157 °C | CC(c1ccccc1)n1c(=O)c2cc([N+](=O)[O-])ccc2n1C (stereo not shown) [Compound 18, 1-Methyl-5-nitro-2-(1-phenylethyl)-1,2-dihydro-3H-indazol-3-one] | >2.9 | – | > 100 µM | > 200 µM |
| 1.28 V | 1.35 V | 0.65 | 1.32 V | > 100 µM | – | Cn1nc(O)c2cc([N+](=O)[O-])ccc21 [Compound 19, 1-methyl-5-nitroindazol-3-ol] | – | – | > 100 µM | > 200 µM |
| 1.28 V | 1.38 V | 0.67 | 1.33 V | > 100 µM | – | O=[N+]([O-])c1ccc2c(c1)c(O)nn2CCCCCO [Compound 20] | – | – | > 100 µM | > 200 µM |
| 1.27 V | 1.37 V | 0.56 | 1.32 V | 84.3 ± 2.1 µM | – | O=[N+]([O-])c1ccc2c(c1)c(O)nn2CCCCCCCl [Compound 21] | >2.4 | >2.1 | 91.2 ± 2.2 µM | > 200 µM |
| 0.85 V | 0.91 V | 1.01 | 0.88 V | 17.4 ± 1.3 µM | – | CC1CS(=O)(=O)CCN1/N=C/c1ccc([N+](=O)[O-])o1 (stereo not shown) [NFX, nifurtimox, reference compound] | 15.1 | 12.3 | 21.5 ± 1.4 µM | 263.4 ± 2.2 µM |
